Measured values published in ChEMBL document CHEMBL1201862, “PubChem BioAssay data set” (2004).
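Cells were grown in 96-well plates and exposed to each compound for 48 hours at five concentrations; endpoints were interpolated linearly between bracketing concentrations, or set to the highest concentration if not reached. The concentration for 50% growth inhibition is given as GI50.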 The source made the active and inactive calls. Rule as the data show it: active = GI50 up to about 1.1 µM and inactive = higher.

Legend:
Experiment in all cases: growth of human tumour cells (NCI), 48 h
786-0 = tested on: 786-0
A498 = tested on: A498
A549 = tested on: A549
ACHN = tested on: ACHN
BT-549 = tested on: BT-549
CAKI-1 = tested on: CAKI-1
CCRF-CEM = tested on: CCRF-CEM
COLO 205 = tested on: COLO 205
DU-145 = tested on: DU-145
EKVX = tested on: EKVX
HCC 2998 = tested on: HCC 2998
HCT-116 = tested on: HCT-116
HCT-15 = tested on: HCT-15
HL-60 = tested on: HL-60
HOP-62 = tested on: HOP-62
HOP-92 = tested on: HOP-92
HT-29 = tested on: HT-29
Hs-578T = tested on: Hs-578T
IGROV-1 = tested on: IGROV-1
K562 = tested on: K562
KM12 = tested on: KM12
LOX IMVI = tested on: LOX IMVI
M14 = tested on: M14
MCF7 = tested on: MCF7
MDA-MB-231 = tested on: MDA-MB-231
MDA-MB-435 = tested on: MDA-MB-435
MDA-N = tested on: MDA-N
MOLT-4 = tested on: MOLT-4
Malme-3M = tested on: Malme-3M
NCI-H226 = tested on: NCI-H226
NCI-H23 = tested on: NCI-H23
NCI-H460 = tested on: NCI-H460
NCI-H522 = tested on: NCI-H522
NCI/ADR-RES = tested on: NCI/ADR-RES
OVCAR-3 = tested on: OVCAR-3
OVCAR-4 = tested on: OVCAR-4
OVCAR-5 = tested on: OVCAR-5
OVCAR-8 = tested on: OVCAR-8
PC-3 = tested on: PC-3
RPMI-8226 = tested on: RPMI-8226
RXF 393 = tested on: RXF 393
SF-268 = tested on: SF-268
SF-295 = tested on: SF-295
SF-539 = tested on: SF-539
SK-MEL-28 = tested on: SK-MEL-28
SK-MEL-2 = tested on: SK-MEL-2
SK-MEL-5 = tested on: SK-MEL-5
SK-OV-3 = tested on: SK-OV-3
SN12C = tested on: SN12C
SNB-19 = tested on: SNB-19
SNB-75 = tested on: SNB-75
SR = tested on: SR
SW-620 = tested on: SW-620
T47D = tested on: T47D
TK-10 = tested on: TK-10
U-251 = tested on: U-251
UACC-257 = tested on: UACC-257
UACC-62 = tested on: UACC-62
UO-31 = tested on: UO-31

O=[N+]([O-])c1ccc(O)c(/C=N/NC(=S)N2CCCCC2)c1
GI50 (786-0): 1.84 µM (inactive) | GI50 (A498): 9.12 µM (inactive) | GI50 (A549): 9.25 µM (inactive) | GI50 (ACHN): 1.84 µM (inactive) | GI50 (BT-549): 6.14 µM (inactive) | GI50 (CAKI-1): 3.51 µM (inactive) | GI50 (CCRF-CEM): 0.728 µM (active) | GI50 (COLO 205): 2.38 µM (inactive) | GI50 (DU-145): 3.83 µM (inactive) | GI50 (EKVX): 2.42 µM (inactive) | GI50 (HCC 2998): 7.73 µM (inactive) | GI50 (HCT-116): 3.21 µM (inactive) | GI50 (HCT-15): 1.39 µM | GI50 (HL-60): 0.282 µM (active) | GI50 (HOP-62): 5.74 µM (inactive) | GI50 (HOP-92): 4.17 µM (inactive) | GI50 (HT-29): 2.33 µM (inactive) | GI50 (Hs-578T): 13.8 µM (inactive) | GI50 (IGROV-1): 1.67 µM (inactive) | GI50 (K562): 4.95 µM (inactive) | GI50 (KM12): 3.59 µM (inactive) | GI50 (LOX IMVI): 1.57 µM (inactive) | GI50 (M14): 3.81 µM (inactive) | GI50 (MCF7): 4.55 µM (inactive) | GI50 (MDA-MB-231): 5.89 µM (inactive) | GI50 (MDA-MB-435): 7.43 µM (inactive) | GI50 (MDA-N): 8.26 µM (inactive) | GI50 (MOLT-4): 1.34 µM (inactive) | GI50 (Malme-3M): 1.64 µM (inactive) | GI50 (NCI-H226): 1.55 µM (inactive) | GI50 (NCI-H23): 3.61 µM (inactive) | GI50 (NCI-H460): 4.81 µM (inactive) | GI50 (NCI-H522): 3.52 µM (inactive) | GI50 (NCI/ADR-RES): 1.59 µM (inactive) | GI50 (OVCAR-3): 2.24 µM (inactive) | GI50 (OVCAR-4): 6.24 µM (inactive) | GI50 (OVCAR-5): 16 µM (inactive) | GI50 (OVCAR-8): 1.8 µM (inactive) | GI50 (PC-3): 7.48 µM (inactive) | GI50 (RPMI-8226): 2.79 µM (inactive) | GI50 (RXF 393): 6.05 µM (inactive) | GI50 (SF-268): 2.45 µM (inactive) | GI50 (SF-295): 3.01 µM (inactive) | GI50 (SF-539): 6.82 µM (inactive) | GI50 (SK-MEL-28): 3.71 µM (inactive) | GI50 (SK-MEL-2): 11.3 µM (inactive) | GI50 (SK-MEL-5): 3.7 µM (inactive) | GI50 (SK-OV-3): 4.8 µM (inactive) | GI50 (SN12C): 3.13 µM (inactive) | GI50 (SNB-19): 4.69 µM (inactive) | GI50 (SNB-75): 4.22 µM (inactive) | GI50 (SR): 2.43 µM (inactive) | GI50 (SW-620): 3.13 µM (inactive) | GI50 (T47D): 6.18 µM (inactive) | GI50 (TK-10): 4.98 µM (inactive) | GI50 (U-251): 3.53 µM (inactive) | GI50 (UACC-257): 7.16 µM (inactive) | GI50 (UACC-62): 3.3 µM (inactive) | GI50 (UO-31): 0.91 µM (active)

NCC(O)CNC(=O)c1ccc(-c2ccc(-c3ccc(C(=O)NCC(O)CN)cc3)o2)cc1 (stereo not drawn)
GI50 (786-0): 23.3 µM (inactive) | GI50 (A498): 25 µM (inactive) | GI50 (A549): 37.4 µM (inactive) | GI50 (ACHN): 45.9 µM (inactive) | GI50 (BT-549): 32.7 µM (inactive) | GI50 (CAKI-1): 81.7 µM (inactive) | GI50 (CCRF-CEM): > 100 µM (inactive) | GI50 (COLO 205): 81.8 µM (inactive) | GI50 (DU-145): 22 µM (inactive) | GI50 (EKVX): 27.7 µM (inactive) | GI50 (HCC 2998): 25.1 µM (inactive) | GI50 (HCT-116): 22.4 µM (inactive) | GI50 (HCT-15): 57.8 µM | GI50 (HL-60): > 100 µM (inactive) | GI50 (HOP-62): 25.3 µM (inactive) | GI50 (HOP-92): 22.2 µM (inactive) | GI50 (HT-29): > 100 µM (inactive) | GI50 (Hs-578T): 25.3 µM (inactive) | GI50 (IGROV-1): 30.8 µM (inactive) | GI50 (K562): > 100 µM (inactive) | GI50 (KM12): 51.2 µM (inactive) | GI50 (LOX IMVI): 45 µM (inactive) | GI50 (M14): > 100 µM (inactive) | GI50 (MCF7): 32.8 µM (inactive) | GI50 (MDA-MB-231): 24.5 µM (inactive) | GI50 (MDA-MB-435): > 100 µM (inactive) | GI50 (MDA-N): > 100 µM (inactive) | GI50 (MOLT-4): > 100 µM (inactive) | GI50 (Malme-3M): 21.7 µM (inactive) | GI50 (NCI-H226): 22.6 µM (inactive) | GI50 (NCI-H23): 36.1 µM (inactive) | GI50 (NCI-H460): 59 µM (inactive) | GI50 (NCI-H522): 33.3 µM (inactive) | GI50 (NCI/ADR-RES): > 100 µM (inactive) | GI50 (OVCAR-3): 21.4 µM (inactive) | GI50 (OVCAR-4): 36.5 µM (inactive) | GI50 (OVCAR-5): > 100 µM (inactive) | GI50 (OVCAR-8): 29.6 µM (inactive) | GI50 (PC-3): 21.2 µM (inactive) | GI50 (RPMI-8226): > 100 µM (inactive) | GI50 (RXF 393): 18.9 µM (inactive) | GI50 (SF-268): 28.2 µM (inactive) | GI50 (SF-295): 23.5 µM (inactive) | GI50 (SF-539): 19.1 µM (inactive) | GI50 (SK-MEL-28): > 100 µM (inactive) | GI50 (SK-MEL-2): 53.7 µM (inactive) | GI50 (SK-MEL-5): 33.3 µM (inactive) | GI50 (SK-OV-3): 23.9 µM (inactive) | GI50 (SN12C): 25.1 µM (inactive) | GI50 (SNB-19): 22 µM (inactive) | GI50 (SNB-75): 25.8 µM (inactive) | GI50 (SR): 67.5 µM (inactive) | GI50 (SW-620): > 100 µM (inactive) | GI50 (T47D): 34.6 µM (inactive) | GI50 (TK-10): 18 µM (inactive) | GI50 (U-251): 21.5 µM (inactive) | GI50 (UACC-257): > 100 µM (inactive) | GI50 (UACC-62): 41.8 µM (inactive) | GI50 (UO-31): 49.2 µM (inactive)
